The subject of one data set is MDA-MB-231. The data set can be described thus: Antiproliferative activity against human MDA-MB-231 cells assessed as reduction in cell viability incubated for 72 hrs by MTT assay. In kind it is functional, cell-based. As to conditions: MDA-MB-231, 72 h. (In general: Formazan colour is commonly taken as a measure of viable cells.)
The test system of the next data set is MCF7. The data set can be described thus: Antiproliferative activity against human MCF7 cells assessed as reduction in cell viability incubated for 72 hrs by MTT assay. In kind it is functional, cell-based. The following applies: MCF7, 72 h.
The next data set relates to HCT-116. The data set can be described thus: Antiproliferative activity against human HCT-116 cells assessed as reduction in cell viability incubated for 72 hrs by MTT assay. Type of data set: functional, cell-based. As to conditions: HCT-116, 72 h.
The nature of data set [1]: Inhibition of Lipoxygenase (unknown origin). Also on record: species or system Homo sapiens.
In a further data set the test system is MDCK. In words: Cytotoxicity against dog MDCK cells assessed as inhibition of cell growth at 10 uM relative to control. Further details: scale not given: the % may be the effect or the level left. Type of data set: functional, Canis lupus familiaris.
In a further data set the test system is HepG2. The data set can be described thus: Cytotoxicity against human HepG2 cells assessed as inhibition of cell growth at 10 uM incubated for 72 hrs by MTT assay relative to control. Further details: scale not given: the % may be the effect or the level left. Type of data set: functional.
Data set [2] addresses T1, Prostaglandin G/H synthase 1 (Ovis aries, UniProt P05979).
T1 sequence (P05979 whole entry): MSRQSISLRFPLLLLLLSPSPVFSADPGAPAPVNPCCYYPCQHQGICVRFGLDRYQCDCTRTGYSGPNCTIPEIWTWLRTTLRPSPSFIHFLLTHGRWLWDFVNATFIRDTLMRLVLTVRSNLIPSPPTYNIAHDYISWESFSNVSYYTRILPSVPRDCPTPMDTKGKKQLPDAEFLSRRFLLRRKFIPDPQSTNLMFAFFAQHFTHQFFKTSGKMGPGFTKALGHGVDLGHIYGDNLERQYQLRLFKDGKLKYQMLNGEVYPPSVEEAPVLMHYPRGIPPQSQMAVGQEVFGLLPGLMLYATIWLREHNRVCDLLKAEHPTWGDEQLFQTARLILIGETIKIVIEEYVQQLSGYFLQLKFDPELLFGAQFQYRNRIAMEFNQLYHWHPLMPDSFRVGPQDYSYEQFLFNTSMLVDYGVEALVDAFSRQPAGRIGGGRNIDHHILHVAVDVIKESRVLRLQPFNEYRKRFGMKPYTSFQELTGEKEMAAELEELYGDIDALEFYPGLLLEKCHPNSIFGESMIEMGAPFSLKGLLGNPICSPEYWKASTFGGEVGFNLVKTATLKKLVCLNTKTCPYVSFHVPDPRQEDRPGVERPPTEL
In words: Inhibition of ovine COX-1 by EIA method.

A further data set relates to A549. In words: cells. As to conditions: Homo sapiens.
Data set [3] can be described thus: Cytoprotective activity against H2O2-induced oxidative stress in human HBMEC-2 cells assessed as increase in cell viability incubated for 24 hrs by MTT assay. The following applies: HBMEC-2, 24 h. In kind it is functional, cell-based.
The subject of a further data set is PC-12. In words: Cytoprotective activity against COCL2-induced cellular damage in rat PC12 cells assessed as reduction in cell viability incubated for 48 hrs by MTT assay. As to conditions: PC-12, 48 h. In kind it is functional, cell-based.
Data set [4] deals with T2, Acetylcholinesterase (Homo sapiens, UniProt P22303). The data set can be described thus: Inhibition of AChE (unknown origin) by Ellman's method. A general note: DTNB colorimetry detects thiols as they appear.
Another data set relates to HUVEC. The data set can be described thus: Protection against H2O2-induced oxidative stress in HUVEC cells. In kind it is functional, cell-based. The following applies: Homo sapiens.
The subject of data set [5] is SH-SY5Y. The data set can be described thus: Cytoprotective activity against H2O2-induced oxidative stress in human SH-SY5Y cells assessed as increase in cell viability incubated for 24 hrs by MTT assay. In kind it is functional, cell-based.
The subject of data set [6] is SH-SY5Y. The data set can be described thus: Cytoprotective activity against OGD/R induced human SH-SY5Y cells assessed as assessed as cell survival rate at 10 uM measured after 8 hrs by MTT assay relative to control. In kind it is functional.
A short description of data set [7]: Solubility in water. In kind it is physicochemical.
In data set [8] the target is T2, Acetylcholinesterase. In words: Inhibition of AChE (unknown origin).
A short description of data set [9]: Solubility in water by HPLC analysis. Type of data set: physicochemical.
Data set [10] is described as follows: Inhibition of accumulation of sorbitol in human Red blood cells. In kind it is functional, cell-based. As to conditions: erythrocyte.
For data set [11], the target named is Aldo-keto reductase family 1 member B1 (Rattus norvegicus, UniProt P07943). The data set can be described thus: Inhibition of rat lens aldose reductase.

Converted amounts (≈) assume the structure as drawn.

T2 sequence (P22303 whole entry): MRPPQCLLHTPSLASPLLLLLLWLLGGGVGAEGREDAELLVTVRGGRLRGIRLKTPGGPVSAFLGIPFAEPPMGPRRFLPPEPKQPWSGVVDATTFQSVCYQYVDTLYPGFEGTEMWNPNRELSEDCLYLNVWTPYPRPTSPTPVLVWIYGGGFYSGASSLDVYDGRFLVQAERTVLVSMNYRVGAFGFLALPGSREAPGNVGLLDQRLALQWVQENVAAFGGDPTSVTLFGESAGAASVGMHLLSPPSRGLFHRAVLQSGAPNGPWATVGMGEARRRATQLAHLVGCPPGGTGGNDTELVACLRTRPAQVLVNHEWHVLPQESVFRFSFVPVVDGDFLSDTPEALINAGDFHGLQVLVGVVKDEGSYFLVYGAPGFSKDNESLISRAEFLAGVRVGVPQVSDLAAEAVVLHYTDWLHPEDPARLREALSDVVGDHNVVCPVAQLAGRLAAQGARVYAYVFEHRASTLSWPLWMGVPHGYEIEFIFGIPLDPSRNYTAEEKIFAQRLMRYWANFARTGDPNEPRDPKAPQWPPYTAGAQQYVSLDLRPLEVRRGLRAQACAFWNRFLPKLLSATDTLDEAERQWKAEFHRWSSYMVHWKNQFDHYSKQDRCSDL
Description for A549: Antiproliferative activity against human A549 cells assessed as reduction in cell viability by MTT assay

Take `O=[N+]([O-])c1ccc2c(c1)S(=O)(=O)C=C2`: the IC50 (usually the point on the concentration scale where inhibition reaches its midpoint) stood at 3900 nM with MDA-MB-231, 2080 nM in the data set with MCF7 and 1710 nM in the data set with HCT-116.

Compound `Cc1nc(C)c(/C=C2\CN(C)C/C(=C\c3nc(C)c(C)nc3C)C2=O)nc1C` yielded an IC50 in data set [1] of 7500 nM.

Take `C=C(C)[C@@H]1CC[C@]2(C(=O)OCc3nc(C)c(C)nc3C)CC[C@]3(C)[C@H](CC[C@@H]4[C@@]5(C)CC[C@H](O)C(C)(C)[C@@H]5CC[C@]43C)[C@@H]12`: the results for the Activity in the data set with MDCK and in the data set with HepG2 were 26.5% and 99.87%, respectively.

For the compound `COc1ccc(/C=C2\CN(C)C/C(=C\c3nc(C)c(C)nc3C)C2=O)c(Cl)c1`, the IC50 in data set [2] was 500 nM.

In the case of `Cc1nc(C)c(C(=O)NC2CCN(C(=O)C3=Cc4ccccc4S3(=O)=O)CC2)nc1C`, the IC50 in the data set on MDA-MB-231, with MCF7 and with HCT-116 was above 10000 nM throughout.

In the case of `Cc1nc(C)c(C(=O)NC2CCN(C(=O)C3=Cc4ccccc4S3(=O)=O)C2)nc1C` (configuration not stated), the IC50 in the data set with MDA-MB-231, with MCF7 and in the data set with HCT-116 was above 10000 nM throughout.

The compound `COc1ccc(/C=C/C(=O)/C=C/c2nc(C)c(C)nc2C)cc1O` showed an IC50 in the data set on A549 of 2190 nM.

`COc1cc(CNC(=O)c2ccc(O)c(O)c2)ccc1OCc1nc(C)c(C)nc1C`: the EC50 (in general, the concentration needed to bring the measured effect to its halfway point) in [3] came out at 4150 nM.

As for `Cc1nc(C)c(COC(=O)/C=C/c2ccc(OCc3nc(C)c(C)nc3C)cc2)nc1C`, the EC50 in the data set with PC-12 amounted to 3680 nM.

The compound `COc1cc(/C=C/C(=O)c2ccc(OCCN3CCCC3)cc2)ccc1OCc1nc(C)c(C)nc1C` displayed an IC50 at Acetylcholinesterase [4] of 980 nM.

Regarding `COc1cc(C(=O)Nc2cccc(N(C)C)c2)ccc1OCc1nc(C)c(C)nc1C`, the 50% effective concentration (EC50) with PC-12 amounted to 17400 nM.

As for `Cc1nc(C)c(C(=O)N2CCN(C(=O)C3=Cc4c(Br)cccc4S3(=O)=O)CC2)nc1C`, the IC50 was 4860 nM in the data set on MDA-MB-231, 3290 nM with MCF7 and 6440 nM in the data set on HCT-116.

In turn, `Cc1nc(C)c(/C=C/c2nc(C)c(C)nc2C)nc1C` gave an EC50 in the data set on HUVEC of 25600 nM.

Take `CC(=O)Oc1ccc(C[C@@H](OC(C)=O)C(=O)OCc2nc(C)c(C)nc2C)cc1OC(C)=O`: the EC50 with SH-SY5Y [5] is 2560 nM.

With `CCCCC(OC(=O)CN1CCN(C)CC1)c1ccc(I)cc1C(=O)OCc1nc(C)c(C)nc1C` (configuration not stated), the Activity with SH-SY5Y [6] amounted to 90%.

With `Cc1nc(C)c(CN2CCN(C(=O)C3=Cc4c(Cl)cccc4S3(=O)=O)CC2)nc1C`, the IC50 in the data set on MDA-MB-231 was determined as 2200 nM; with MCF7, 1500 nM; with HCT-116, 2670 nM.

Regarding `C=CCC(CC=C)(OC(=O)[C@@H](Cc1ccc(OC(C)=O)c(OC(C)=O)c1)OC(=O)CN)c1nc(C)c(C)nc1C`, the solubility (commonly how much of the substance goes into solution per volume) in [7] is above 0.1 µg/mL.

Consider `COC(=O)C1=CO[C@H](OC)[C@H]2C(CN3CCN(Cc4nc(C)c(C)nc4C)CC3)=CC[C@@H]12`, for which, at Acetylcholinesterase [8], the IC50 stood at 218 nM.

Turning to `O=c1c(-c2ccc(O)cc2)coc2cc(O)cc(O)c12` [GENISTEIN], the concentration in solution in data set [9] (solubility) came to 0.029 µg/mL (≈ 0.107 µM).

Consider `O=C(/C=C/c1ccc(O)cc1)c1ccc(O)cc1O` [ISOLIQUIRITIGENIN], for which the IC50 in data set [10] worked out at 2000 nM; in data set [11], 320 nM.

For the origin of these results see ChEMBL document CHEMBL6114994, “Ligustrazine as a multitarget scaffold in drug design and discovery” (Bioorg Med Chem, 2025).
